# ChEMBL document CHEMBL5352469, “Solubility-driven optimization of benzothiopyranone salts leading to a preclinical candidate with improved pharmacokinetic properties and activity against Mycobacterium tuberculosis” (Eur J Med Chem, 2023)
# Key:
# [1] = Aqueous solubility of compound by HPLC-PDA method; format: physicochemical; details: buffer; read-out: solubility
# [2] = Apparent permeability across apical to basolateral side in human Caco-2 cells incubated for 21 days; format: ADME, cell-based; details: time 21 day
# [3] = Apparent permeability across basolateral to apical side in human Caco-2 cells incubated for 21 days; format: ADME, cell-based; details: time 21 day
# [4] = Efflux ratio of apparent permeability across basolateral to apical side over apical to basolateral side in human Caco-2 cells; format: ADME, cell-based
# [5] = Elimination half life in Balb/c mouse at 50 mg/kg, po measured upto 24 hrs by LC/MS/MS analysis; format: ADME, organism-based; details: in vivo, read-out: beta t1/2 (converted)
# [6] = Elimination half life in Balb/c mouse at 5 mg/kg, iv measured upto 24 hrs by LC/MS/MS analysis; format: ADME, organism-based; details: in vivo, read-out: beta t1/2 (converted)
# [7] = Tmax in Balb/c mouse at 50 mg/kg, po measured upto 24 hrs by LC/MS/MS analysis; format: ADME, organism-based; details: in vivo
# [8] = Cmax in Balb/c mouse at 50 mg/kg, po measured upto 24 hrs by LC/MS/MS analysis; format: ADME, organism-based; design: time < 24 hrs, dose 50 mg/kg, route po; details: in vivo
# [9] = Cmax in Balb/c mouse at 5 mg/kg, iv measured upto 24 hrs by LC/MS/MS analysis; format: ADME, organism-based; design: dose 5 mg/kg, time < 24 hrs, route iv; details: in vivo
# [10] = AUC (0 to t) in Balb/c mouse at 50 mg/kg, po measured upto 24 hrs by LC/MS/MS analysis; format: ADME, organism-based; design: dose 50 mg/kg, time < 24 hrs, route po; details: Balb/c, in vivo
# [11] = AUC (0 to t) in Balb/c mouse at 5 mg/kg, iv measured upto 24 hrs by LC/MS/MS analysis; format: ADME, organism-based; design: time < 24 hrs, dose 5 mg/kg, route iv; details: Balb/c, in vivo
# [12] = Oral bioavailability in Balb/c mouse at 50 mg/kg measured upto 24 hrs by LC/MS/MS analysis; format: ADME, organism-based; details: Balb/c, in vivo
# [13] = Chemical stability of the compound under 4500 +/- 500 lx light condition by measuring compound purity incubated for 10 days by HPLC-PDA method relative to initial purity; format: physicochemical; details: time 10 day; for Stability: 240 h
# [14] = Chemical stability of the compound under 60 degree C high temperature by measuring compound purity incubated for 10 days by HPLC-PDA method analysis relative to initial purity; format: physicochemical; details: time 10 day; for Stability: 240 h
# [15] = Chemical stability of the compound under 92.5% humidity by measuring compound purity incubated for 10 days by HPLC-PDA method relative to initial purity; format: physicochemical; details: time 10 day; for Stability: 240 h
# [16] = Elimination half life in Sprague-Dawley rat at 50 mg/kg, po measured upto 24 hrs by LC/MS/MS analysis; format: ADME, organism-based; details: in vivo, read-out: beta t1/2 (converted)
# [17] = Elimination half life in Sprague-Dawley rat at 5 mg/kg, iv measured upto 24 hrs by LC/MS/MS analysis; format: ADME, organism-based; details: in vivo, read-out: beta t1/2 (converted)
# [18] = Tmax in Sprague-Dawley rat at 50 mg/kg, po measured upto 24 hrs by LC/MS/MS analysis; format: ADME, organism-based; details: in vivo
# [19] = Cmax in Sprague-Dawley rat at 50 mg/kg, po measured upto 24 hrs by LC/MS/MS analysis; format: ADME, organism-based; design: time < 24 hrs, dose 50 mg/kg, route po; details: in vivo
# [20] = Cmax in Sprague-Dawley rat at 5 mg/kg, iv measured upto 24 hrs by LC/MS/MS analysis; format: ADME, organism-based; design: time < 24 hrs, dose 5 mg/kg, route iv; details: in vivo
# [21] = AUC (0 to t) in Sprague-Dawley rat at 50 mg/kg, po measured upto 24 hrs by LC/MS/MS analysis; format: ADME, organism-based; design: dose 50 mg/kg, time < 24 hrs, route po; details: in vivo
# [22] = AUC (0 to t) in Sprague-Dawley rat at 5 mg/kg, iv measured upto 24 hrs by LC/MS/MS analysis; format: ADME, organism-based; design: time < 24 hrs, dose 5 mg/kg, route iv; details: in vivo
# [23] = AUC (0 to infinity) in Sprague-Dawley rat at 50 mg/kg, po measured upto 24 hrs by LC/MS/MS analysis; format: ADME, organism-based; design: time < 24 hrs, dose 50 mg/kg, route po; details: in vivo
# [24] = AUC (0 to infinity) in Sprague-Dawley rat at 5 mg/kg, iv measured upto 24 hrs by LC/MS/MS analysis; format: ADME, organism-based; design: time < 24 hrs, dose 5 mg/kg, route iv; details: in vivo
# [25] = MRT (0 to infinity) in Sprague-Dawley rat at 50 mg/kg, po measured upto 24 hrs by LC/MS/MS analysis; format: ADME, organism-based; details: in vivo
# [26] = MRT (0 to infinity) in Sprague-Dawley rat at 5 mg/kg, iv measured upto 24 hrs by LC/MS/MS analysis; format: ADME, organism-based; details: in vivo
# [27] = Clearance in Sprague-Dawley rat at 5 mg/kg, iv measured upto 24 hrs by LC/MS/MS analysis; format: ADME, organism-based; details: in vivo
# [28] = Oral bioavailability in Sprague-Dawley rat at 50 mg/kg measured upto 24 hrs by LC/MS/MS analysis; format: ADME, organism-based; details: in vivo
# [29] = Lipophilicity, log P of the compound in octanol/water incubated for 72 hrs under shaking condition by shake flask based HPLC-PDA method; format: physicochemical
# [30] = Lipophilicity, log D of the compound in octanol/water at pH 2.0 incubated for 72 hrs under shaking condition by shake flask based HPLC-PDA method; format: physicochemical; details: pH 2
# [31] = Lipophilicity, log D of the compound in octanol/water at pH 4.0 incubated for 72 hrs under shaking condition by shake flask based HPLC-PDA method; format: physicochemical; details: pH 4
# [32] = Lipophilicity, log D of the compound in octanol/water at pH 6.8 incubated for 72 hrs under shaking condition by shake flask based HPLC-PDA method; format: physicochemical; details: pH 6.8
# [33] = Lipophilicity, log D of the compound in octanol/water at pH 7.6 incubated for 72 hrs under shaking condition by shake flask based HPLC-PDA method; format: physicochemical; details: pH 7.6
# [34] = tested on: Mycobacterium tuberculosis; test: Antibacterial activity against Mycobacterium tuberculosis H37Rv by microplate alamar blue assay; format: functional
# [35] = tested on: Mycobacterium tuberculosis; test: Antibacterial activity against Mycobacterium tuberculosis H37Rv BALB/c mouse model assessed as reduction in CFU in lungs at 12.5 mg/kg via oral gavage for 30 days (reference value: 5.35 +/-0.17); format: functional; details: time 30 day
# [36] = tested on: Mycobacterium tuberculosis; test: Antibacterial activity against Mycobacterium tuberculosis H37Rv BALB/c mouse model assessed as reduction in CFU in lungs at 25 mg/kg via oral gavage for 30 days (reference value: 5.35 +/-0.17); format: functional; details: time 30 day
# [37] = tested on: Mycobacterium tuberculosis; test: Antibacterial activity against Mycobacterium tuberculosis H37Rv BALB/c mouse model assessed as reduction in delta CFU in lungs at 12.5 mg/kg via oral gavage for 30 days; format: functional; details: time 30 day
# [38] = tested on: Mycobacterium tuberculosis; test: Antibacterial activity against Mycobacterium tuberculosis H37Rv BALB/c mouse model assessed as reduction in delta CFU in lungs at 25 mg/kg via oral gavage for 30 days; format: functional; details: time 30 day
structure (smiles),measurement,setting,value
O=C(O)CC(O)(CC(=O)O)C(=O)O.O=c1cc(N2CCN(CC3CCCCC3)CC2)sc2c([N+](=O)[O-])cc(C(F)(F)F)cc12,solubility,[1],143 µg/mL
same,Papp A→B,[2],2.52 ×10⁻⁶ cm/s
same,Papp B→A,[3],0.33 ×10⁻⁶ cm/s
same,efflux ratio,[4],0.13
same,half-life,[5],6.19 h
same,half-life,[6],6.67 h
same,Tmax,[7],0.5 h
same,Cmax,[8],536 ng/mL
same,Cmax,[9],3780 ng/mL
same,AUC(0-t) at 24 h,[10],4440 ng·h/mL
same,AUC(0-t) at 24 h,[11],2360 ng·h/mL
same,bioavailability,[12],19.4%
same,Stability,[13],91.3%
same,Stability,[14],99.6%
same,Stability,[15],99.4%
O=C(O)/C=C\C(=O)O.O=c1cc(N2CCN(CC3CCCCC3)CC2)sc2c([N+](=O)[O-])cc(C(F)(F)F)cc12,solubility,[1],114 µg/mL
same,Papp A→B,[2],3.1 ×10⁻⁶ cm/s
same,Papp B→A,[3],0.25 ×10⁻⁶ cm/s
same,efflux ratio,[4],0.1
same,half-life,[5],5.99 h
same,half-life,[6],6.61 h
same,Tmax,[7],1.5 h
same,Cmax,[8],776 ng/mL
same,Cmax,[9],3090 ng/mL
same,AUC(0-t) at 24 h,[10],7110 ng·h/mL
same,AUC(0-t) at 24 h,[11],2570 ng·h/mL
same,bioavailability,[12],28%
same,half-life,[16],4.56 h
same,half-life,[17],6.43 h
same,Tmax,[18],3.33 h
same,Cmax,[19],282 ng/mL
same,Cmax,[20],3880 ng/mL
same,AUC(0-t) at 24 h,[21],2130 ng·h/mL
same,AUC(0-t) at 24 h,[22],1710 ng·h/mL
same,AUC(0-inf),[23],2180 ng·h/mL
same,AUC(0-inf),[24],1740 ng·h/mL
same,MRT inf,[25],5.91 h
same,MRT inf,[26],2.46 h
same,clearance,[27],52.4 mL/min/kg
same,bioavailability,[28],12.5%
same,remaining at 240 h,[13]; read-out: Stability,100%
same,remaining at 240 h,[14]; read-out: Stability,100%
same,remaining at 240 h,[15]; read-out: Stability,100%
same,logP at 72 h,[29],2.6
same,logD at 72 h,[30],1.31
same,logD at 72 h,[31],3.6
same,logD at 72 h,[32],> 4.24
same,logD at 72 h,[33],> 4.24
same,MIC,[34],< 0.016 µg/mL
same,Activity,[35],4.6 log10CFU
same,Activity,[36],2.12 log10CFU
same,Activity,[37],0.75 log10CFU
same,Activity,[38],3.23 log10CFU
O=C(O)C[C@H](O)C(=O)O.O=c1cc(N2CCN(CC3CCCCC3)CC2)sc2c([N+](=O)[O-])cc(C(F)(F)F)cc12,solubility,[1],158 µg/mL
same,Papp A→B,[2],7.78 ×10⁻⁶ cm/s
same,Papp B→A,[3],0.28 ×10⁻⁶ cm/s
same,half-life,[5],6 h
same,half-life,[6],5.9 h
same,Tmax,[7],1 h
same,Cmax,[8],979 ng/mL
same,Cmax,[9],3950 ng/mL
same,AUC(0-t) at 24 h,[10],7280 ng·h/mL
same,AUC(0-t) at 24 h,[11],2730 ng·h/mL
same,bioavailability,[12],27.7%
same,Stability,[13],90.6%
same,Stability,[14],98.2%
same,Stability,[15],98.3%
O=C(O)CC(O)(CC(=O)O)C(=O)O.O=C(O)CC(O)(CC(=O)O)C(=O)O.O=C(O)CC(O)(CC(=O)O)C(=O)O.O=c1cc(N2CCN(CC3CCCCC3)CC2)sc2c([N+](=O)[O-])cc(C(F)(F)F)cc12.O=c1cc(N2CCN(CC3CCCCC3)CC2)sc2c([N+](=O)[O-])cc(C(F)(F)F)cc12,solubility,[1],128 µg/mL
same,Papp A→B,[2],4.08 ×10⁻⁶ cm/s
same,Papp B→A,[3],0.26 ×10⁻⁶ cm/s
same,efflux ratio,[4],0.1
